These are literature values, as cited in paper PMC7504348 (Molecules, 2020).

This data set deals with AChE. As to conditions: dataset for 2D-QSAR model, Ellman's method, galantamine as reference; cited from earlier work.
Regarding `Cc1nccc2c1[nH]c1ccccc12` [CHEMBL12014], the “pIC50 (AChE dataset, Table S4)” value is 4.23. `CC1=NCCc2c1[nH]c1cc(O)ccc21` [CHEMBL129177]: the “pIC50 (AChE dataset, Table S4)” value is 4.47. `c1ccc(CNc2ccccc2)cc1` [CHEMBL237223]: the “pIC50 (AChE dataset, Table S4)” value is given as 4.59. As to `CCOC(=O)c1c(C)nc2nc3c(c(N)c2c1-c1ccccc1)CCCC3` [CHEMBL253386], the “pIC50 (AChE dataset, Table S4)” value is listed as 5.49.

For the compound `COc1ccc2c(c1)[nH]c1c(C)nccc12` [CHEMBL269538], the “pIC50 (AChE dataset, Table S4)” value is 4.19. Consider `COc1ccc2c3c([nH]c2c1)C(C)=NCC3` [CHEMBL340807], for which the “pIC50 (AChE dataset, Table S4)” value was 4.80. Consider `CN(C)CCc1c[nH]c2ccc(O)cc12` [CHEMBL416526], for which the “pIC50 (AChE dataset, Table S4)” value is 4.94.

Consider `OC[C@H]1O[C@@H](Oc2ccc(/C=N/O)cc2)[C@H](O)[C@@H](O)[C@@H]1O` [CHEMBL457684], for which the “pIC50 (AChE dataset, Table S4)” value is listed as 4.78.

Take `CO/N=C\c1ccc(O[C@@H]2O[C@H](COC(C)=O)[C@@H](OC(C)=O)[C@H](OC(C)=O)[C@H]2OC(C)=O)cc1` [CHEMBL463856]: the “pIC50 (AChE dataset, Table S4)” value was 4.33. On to `O=C(O[C@H]1[C@H](Oc2ccc(/C=N/O)cc2)OC[C@@H](OC(=O)c2ccccc2)[C@H]1OC(=O)c1ccccc1)c1ccccc1` [CHEMBL500712], for which the “pIC50 (AChE dataset, Table S4)” value is on record as 4.40. On to `COc1cc2ccnc3c2c(c1OC)-c1ccccc1C3=O` [CHEMBL510090], for which the “pIC50 (AChE dataset, Table S4)” value is on record as 4.72. For the compound `CC(=O)OC[C@H]1O[C@@H](Oc2ccc(/C=N/NC(N)=S)cc2)[C@H](OC(C)=O)[C@@H](OC(C)=O)[C@@H]1OC(C)=O` [CHEMBL517342], the “pIC50 (AChE dataset, Table S4)” value is listed as 4.19. Regarding `CCN(CC)Cc1ccc(OCCCCCCCCCCN2CCCCC2)cc1` [CHEMBL1085869], the “pIC50 (AChE dataset, Table S4)” value is listed as 5.67. For the compound `COc1cccc2c1C(=O)c1c(C)cc(=O)[nH]c1C2=O` [CHEMBL1269160], the “pIC50 (AChE dataset, Table S4)” value is listed as 4.57. In the case of `COc1cc2c(cc1O)C=[N+](C)CC2.O=C([O-])C(F)(F)F` [CHEMBL1270150], the “pIC50 (AChE dataset, Table S4)” value is 4.73. Regarding `COc1cc2c(cc1O)C[N@+]1(C)CCc3cc(OC)c(OC)cc3[C@@H]1C2` [CHEMBL1270255], the “pIC50 (AChE dataset, Table S4)” value was 5.01. For the compound `COc1ccc2c(ccc[n+]2C)c1.[I-]` [CHEMBL2018160], the “pIC50 (AChE dataset, Table S4)” value is recorded as 4.63. With `CCc1ccc(N(Cc2ccc(C)cc2)C(=O)/C=C/C(=O)N(Cc2ccc(C)cc2)c2ccc(CC)cc2)cc1` [CHEMBL2296112], the “pIC50 (AChE dataset, Table S4)” value is reported as 4.25. With `CCc1ccc(N(Cc2ccccc2)C(=O)/C=C/C(=O)N(Cc2ccccc2)c2ccc(CC)cc2)cc1` [CHEMBL2296113], the “pIC50 (AChE dataset, Table S4)” value was 4.21. In the case of `CCOc1ccc(N(Cc2ccccc2)C(=O)/C=C/C(=O)N(Cc2ccccc2)c2ccc(OCC)cc2)cc1` [CHEMBL2296117], the “pIC50 (AChE dataset, Table S4)” value is listed as 4.18.

As to `Cc1ccc(CN(C(=O)/C=C/C(=O)N(Cc2ccc(C)cc2)c2ccc(F)cc2)c2ccc(F)cc2)cc1` [CHEMBL2296124], the “pIC50 (AChE dataset, Table S4)” value is 4.33. For `Cc1ccc(CN(C(=O)/C=C/C(=O)N(Cc2ccc(C)cc2)c2ccc(I)cc2)c2ccc(I)cc2)cc1` [CHEMBL2296125], the “pIC50 (AChE dataset, Table S4)” value is 4.46.

For `CC(C)[C@H](NC(=O)OCC(Cl)(Cl)Cl)C(=O)N[C@H](C)c1nc2ccc(F)cc2s1` [CHEMBL2334725], the “pIC50 (AChE dataset, Table S4)” value is listed as 4.70. Regarding `CC(C)[C@H](NC(=O)OCC(F)(F)F)C(=O)N[C@H](C)c1nc2ccc(F)cc2s1` [CHEMBL2334726], the “pIC50 (AChE dataset, Table S4)” value is given as 4.49.

As for `CC(C)[C@H](NC(=O)OCC(F)(F)C(F)F)C(=O)N[C@H](C)c1nc2ccc(F)cc2s1` [CHEMBL2334727], the “pIC50 (AChE dataset, Table S4)” value is on record as 4.72. Take `CC(C)[C@H](NC(=O)OCC(F)(F)C(F)(F)C(F)(F)F)C(=O)N[C@H](C)c1nc2ccc(F)cc2s1` [CHEMBL2334728]: the “pIC50 (AChE dataset, Table S4)” value is 4.24. For the compound `CCC[C@H](NC(=O)OCC)C(=O)N[C@H](C)c1nc2ccc(F)cc2s1` [CHEMBL2334730], the “pIC50 (AChE dataset, Table S4)” value is 4.64. In the case of `CCC[C@H](NC(=O)OC(C)C)C(=O)N[C@H](C)c1nc2ccc(F)cc2s1` [CHEMBL2334732], the “pIC50 (AChE dataset, Table S4)” value is 4.86.

As to `CCC[C@H](NC(=O)OCC(Cl)(Cl)Cl)C(=O)N[C@H](C)c1nc2ccc(F)cc2s1` [CHEMBL2334736], the “pIC50 (AChE dataset, Table S4)” value is on record as 4.72. `CCC[C@H](NC(=O)OCC(F)(F)F)C(=O)N[C@H](C)c1nc2ccc(F)cc2s1` [CHEMBL2334737]: the “pIC50 (AChE dataset, Table S4)” value is listed as 4.71. As to `CCC[C@H](NC(=O)OCC(F)(F)C(F)F)C(=O)N[C@H](C)c1nc2ccc(F)cc2s1` [CHEMBL2334738], the “pIC50 (AChE dataset, Table S4)” value was 4.69. As to `CCC[C@H](NC(=O)OCC(F)(F)C(F)(F)C(F)(F)F)C(=O)N[C@H](C)c1nc2ccc(F)cc2s1` [CHEMBL2334739], the “pIC50 (AChE dataset, Table S4)” value is 4.52. As to `CC(C)COC(=O)N[C@H](C(=O)N[C@H](C)c1nc2ccc(F)cc2s1)C(C)C` [CHEMBL2334745], the “pIC50 (AChE dataset, Table S4)” value is given as 4.49. On to `CC(C)[C@H](NC(=O)OCCBr)C(=O)N[C@H](C)c1nc2ccc(F)cc2s1` [CHEMBL2334747], for which the “pIC50 (AChE dataset, Table S4)” value is reported as 4.51. With `COc1cc(CCC(=O)C2=C(CCc3ccc(O)c(OC)c3)NC(=O)NC2c2ccc(O)cc2)ccc1O` (stereo not drawn) [CHEMBL2381433], the “pIC50 (AChE dataset, Table S4)” value is listed as 4.58. As to `COc1ccc(C2NC(=O)NC(CCc3ccc(O)c(OC)c3)=C2C(=O)CCc2ccc(O)c(OC)c2)cc1` (stereo not drawn) [CHEMBL2381434], the “pIC50 (AChE dataset, Table S4)” value is reported as 4.67. Turning to `COc1ccccc1/C=C1\CNCC2=C1NC(=O)NC2c1ccccc1OC` (stereo not drawn) [CHEMBL2385766], the “pIC50 (AChE dataset, Table S4)” value is reported as 4.35.

In the case of `O=C1NC2=C(CNC/C2=C\c2ccc(Br)cc2)C(c2ccc(Br)cc2)N1` (stereo not drawn) [CHEMBL2385768], the “pIC50 (AChE dataset, Table S4)” value is listed as 4.75.

Turning to `O=C1NC2=C(CNC/C2=C\c2ccc(F)cc2)C(c2ccc(F)cc2)N1` (stereo not drawn) [CHEMBL2385771], the “pIC50 (AChE dataset, Table S4)” value is reported as 4.30. For `O=C1NC2=C(CNC/C2=C\c2ccc(Cl)cc2Cl)C(c2ccc(Cl)cc2Cl)N1` (stereo not drawn) [CHEMBL2385772], the “pIC50 (AChE dataset, Table S4)” value is given as 4.48. As for `O=C1NC2=C(CNC/C2=C\c2cccc3ccccc23)C(c2cccc3ccccc23)N1` (stereo not drawn) [CHEMBL2385773], the “pIC50 (AChE dataset, Table S4)” value is 4.83. Regarding `Fc1ccccc1/C=C1\CNCC2=C1NC(=S)NC2c1ccccc1F` (stereo not drawn) [CHEMBL2385777], the “pIC50 (AChE dataset, Table S4)” value was 4.34. With `O=[N+]([O-])c1cccc(/C=C2\CNCC3=C2NC(=S)NC3c2cccc([N+](=O)[O-])c2)c1` (stereo not drawn) [CHEMBL2385779], the “pIC50 (AChE dataset, Table S4)” value was 4.42. Consider `S=C1NC2=C(CNC/C2=C\c2ccc(Br)cc2)C(c2ccc(Br)cc2)N1` (stereo not drawn) [CHEMBL2385780], for which the “pIC50 (AChE dataset, Table S4)” value is 4.88. Regarding `S=C1NC2=C(CNC/C2=C\c2ccc(Cl)cc2Cl)C(c2ccc(Cl)cc2Cl)N1` (stereo not drawn) [CHEMBL2385784], the “pIC50 (AChE dataset, Table S4)” value is recorded as 4.53. For `COC(=O)[C@@H]1CCCN1CCCCCOc1ccc2c(=O)cc(-c3ccccc3)oc2c1C` [CHEMBL2393074], the “pIC50 (AChE dataset, Table S4)” value is on record as 4.75. In the case of `NCCc1c(C(c2c[nH]c3ccccc23)C(O)CO)[nH]c2ccc(O)cc12` (stereo not drawn) [CHEMBL3125443], the “pIC50 (AChE dataset, Table S4)” value was 4.90. With `CCN(CC)Cc1cccc2oc3cc(OC)ccc3c12` [CHEMBL3127043], the “pIC50 (AChE dataset, Table S4)” value is 4.98.
